In PubChem BioAssay AID652110 (The Scripps Research Institute Molecular Screening Center, 2013) one finds inhibition data, which are given here for 65 compounds.

SMILES strings stand for the structures. Activity calls are given as the source filed them. No rule for the calls is given here.

Broadly, the inhibition is the relative decrease from the control value, in per cent.

In the experiment the target is Serine/threonine-protein phosphatase PP1-alpha catalytic subunit (Homo sapiens) (UniProt P62136). Nature of the experiment: PP1 inhibitors on glycogen phosphorylase dephosphorylation, late-stage follow-up, PP1 inhibitor probe project, biochemical, radiolabel, 32P-phosphorylase substrate, single concentration (AID 652110). As to conditions: PP1 dephosphorylation of 32P-glycogen phosphorylase, at 50 µM, hits give high values.
Chain of Serine/threonine-protein phosphatase PP1-alpha catalytic subunit (Homo sapiens) (P62136 whole entry, looked up): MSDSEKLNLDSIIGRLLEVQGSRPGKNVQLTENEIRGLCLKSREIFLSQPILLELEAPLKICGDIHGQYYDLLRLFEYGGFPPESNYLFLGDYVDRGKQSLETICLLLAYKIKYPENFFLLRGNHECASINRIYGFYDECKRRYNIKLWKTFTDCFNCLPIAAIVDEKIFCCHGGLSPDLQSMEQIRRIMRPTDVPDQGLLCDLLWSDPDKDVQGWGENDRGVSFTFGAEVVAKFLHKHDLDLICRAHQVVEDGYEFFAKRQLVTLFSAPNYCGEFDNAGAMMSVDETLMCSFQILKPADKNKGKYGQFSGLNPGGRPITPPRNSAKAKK

With `Oc1ccccc1/C=N/Nc1cc(N2CCCC2)nc(N2CCCC2)n1`, the inhibition is 17.2% (inactive).
In the case of `Cc1nnc(NC(=O)C2C3C=CC(O3)C2C(=O)O)s1` (stereo not given) it was 56.1% (inactive); in that of `COc1cnc(-c2ccccn2)nc1Sc1ccc(C)cc1`, 9.79% (inactive); in that of `COc1ccc(Sc2nc(-c3ccccn3)ncc2OC)cc1`, -0.0224% (inactive).
In the case of `O=S(=O)(Cc1cc(NCc2ccccc2)nc(-c2ccccn2)n1)c1ccccc1` it was 11.7% (inactive); in that of `CCOC(=O)c1sc2nc3c(SCC(=O)O)cc(C(=O)c4cc(F)ccc4O)cn3c(=O)c2c1C`, 92.2%.
The value for `CCCN(CC1CC1)c1nc(N)c2c(N)nc(OC)cc2c1C#N` was 8.48% (inactive); that for `COc1cnc(-c2ccccn2)nc1Sc1ccc(Cl)cc1` was 12.2% (inactive).
With `COc1ccc(C(=O)c2nccc3cc(OC)c(OC)cc23)cc1OC`, the inhibition was 9.58% (inactive).
Take `COc1ccccc1Sc1nc(-c2ccccn2)ncc1OC`: the inhibition was -0.402% (inactive).
The value for `Oc1ccc(/C=N/Nc2cc(N3CCOCC3)nc(N3CCOCC3)n2)c(O)c1` was 20.3% (inactive); that for `Cc1[nH]n(-c2ccccc2)c(=O)c1C(c1ccc([N+](=O)[O-])cc1)c1c(C)[nH]n(-c2ccccc2)c1=O` was 48.3% (inactive); that for `O=C(O)c1cc(-c2ccc(Cl)c(Cl)c2)n(-c2ccc(F)cc2)n1` was 8.75% (inactive).
Consider `CCOC(=O)c1nn(-c2ccc(C)cc2)c(=O)c2c(N)scc12`, for which the inhibition is 12.3% (inactive).
In the case of `COc1cnc(-c2ccccn2)nc1Sc1ccc(F)cc1` it was 3.69% (inactive).
`COc1ccc(Cn2c(N)c(C(=O)NCc3ccco3)c3nc4ccccc4nc32)cc1OC`: the inhibition was 8.99% (inactive).
Take `O=C(O)C1C2CCC(O2)C1C(=O)NC1CCCCC1` (stereo not given): the inhibition is 66.1% (inactive).
For the compound `Cc1cc(C)c(S(=O)(=O)/N=C2\C=C(Sc3ncn[nH]3)C(=O)c3ccccc32)cc1C`, the inhibition was 30.5% (inactive).
For the compound `CCOC(=O)c1cnc(-n2cc(C)cn2)nc1NCc1ccc2c(c1)OCO2`, the inhibition was 21.6% (inactive).
For the compound `COc1ccc(NC(=S)Nc2ccc3nsnc3c2)cc1`, the inhibition was 13.3% (inactive).
In the case of `O=C(NC1(O)C(=O)c2ccccc2C1=O)c1c(Cl)cccc1Cl` it was 33.1% (inactive); in that of `Cc1ccc(C(=O)NNc2cc(N3CCCC3)nc(N3CCCC3)n2)cc1`, 14.4% (inactive).
For `CCOC(=O)c1sc(N2C(=O)C(O)=C(C(=O)c3ccco3)C2c2cccc([N+](=O)[O-])c2)nc1C` (stereo not given), the inhibition is 51.3% (inactive).
In the case of `O=C1Nc2ccccc2N2CCCC12` (stereo not given) it was 9.82% (inactive).
In the case of `CCCCn1c(NC(=O)c2ccco2)c(C(=O)OCC)c2nc3ccccc3nc21` it was 29.8% (inactive).
In the case of `Oc1cccc(/C=N/Nc2cc(N3CCCC3)nc(N3CCCC3)n2)c1` it was 20.3% (inactive); in that of `c1ccc(-c2nccc(-c3ccc(-n4cnc5ccccc54)cc3)n2)nc1`, 43% (inactive); in that of `COc1cnc(-c2ccccn2)nc1Oc1cccc(C(F)(F)F)c1`, 0.507% (inactive).
For `O=C(O)c1cc(-c2ccc(Cl)c(Cl)c2)n(-c2ccccc2)n1`, the inhibition is 12.2% (inactive).
The value for `O=C(Nc1nc(-c2ccccn2)cs1)C1CC(=O)N(c2ccc3c(c2)OCCO3)C1` (stereo not given) was 19.7% (inactive); that for `N#Cc1c(-c2ccc(Cl)cc2)cc(-c2cccs2)nc1SCC(=O)O` was 81.6%.
In the case of `COc1ccc(CN2C(=O)Cc3c2nc(N)c2c(N)nc(N4CCCCC4)c(C#N)c32)cc1` it was 45.7% (inactive); in that of `O=C(O)c1n[nH]nc1-c1ccccc1`, 22.4% (inactive); in that of `COc1cnc(-c2ccccn2)nc1Oc1cccc(Cl)c1`, 3.5% (inactive).
The value for `CCOC(=O)c1cnc(-n2nc(C)cc2C)nc1NC(C)c1ccccc1` (stereo not given) was 15.8% (inactive).
In the case of `COc1ccc2c(Cl)c(C(=O)N/N=C/c3ccc4c(c3)OCO4)sc2c1`, the inhibition is 33.4% (inactive).
For `CC(=O)C(C(C)=O)C1(O)C(=O)c2ccccc2C1=O`, the inhibition was 24.6% (inactive).
In the case of `COc1cnc(-c2ccccn2)nc1Sc1cccc(Cl)c1` it was 23% (inactive); in that of `CCOC(=O)c1cnc(-n2nc(C)cc2C)nc1NC1CCCCC1`, 16.3% (inactive).
The value for `COc1cnc(-c2ccccn2)nc1Sc1ccccc1Cl` was 9.17% (inactive); that for `Nc1cc2nsnc2cc1Br` was 27.9% (inactive); that for `COc1ccc(NC(=O)C2C3CCC(O3)C2C(=O)O)c(OC)c1` (stereo not given) was 73.9%.
In the case of `CN1CCN(C(c2ccccn2)c2cc(Cl)c3cccnc3c2O)CC1` (stereo not given) it was 97%; in that of `O=C(NC1(O)C(=O)c2ccccc2C1=O)c1ccccc1`, 30.4% (inactive).
For `CCCCN(CC)c1nc(N)c2c(N)nc(OCC)cc2c1C#N`, the inhibition was 17.2% (inactive).
In the case of `CCOC(=O)C1=C(C)OC2(O)c3ccccc3C(=O)C12O` (stereo not given) it was 17.4% (inactive); in that of `Cc1ccc(C(=O)NC2(O)C(=O)c3ccccc3C2=O)cc1C`, 29.6% (inactive); in that of `CCOC(=O)c1cnc(-n2nc(C)cc2C)nc1NCc1ccccc1`, 7.11% (inactive).
For the compound `Clc1ccc(-n2nnnc2-c2cnc(-c3ccccn3)nc2-c2cccs2)cc1`, the inhibition is 0.651% (inactive).
In the case of `O=C1CCCC2=C1C1(O)C(=O)c3ccccc3C1(O)O2` (stereo not given) it was 19.8% (inactive); in that of `COc1ccc(OCCCC(=O)Nc2nc(-c3ccccn3)cs2)cc1`, 19.4% (inactive).
In the case of `c1ccc(Nc2nc(-c3ccccn3)cs2)cc1` it was 13.2% (inactive); in that of `CCOC(=O)c1cnc(-n2nc(C)cc2C)nc1NCCc1ccccc1`, 16.9% (inactive); in that of `N#Cc1c(N2CCCC(O)C2)nc(N)c2c(N)nc3c(c12)CC(=O)N3C12CC3CC(CC(C3)C1)C2` (stereo not given), 24.2% (inactive).
Take `Cc1ccc(-n2nc(C(=O)O)cc2-c2ccc(Cl)cc2)cc1`: the inhibition was 5.4% (inactive).
In the case of `COc1cnc(-c2ccccn2)nc1Sc1ccccc1` it was 0.752% (inactive); in that of `CCn1c2ccccc2c2cc(NC(=O)COC(=O)c3ccc(NC(=O)CC#N)cc3)ccc21`, 74.6%; in that of `O=C(O)c1cc(-c2ccc(Cl)cc2)n(-c2cccc(Cl)c2)n1`, 12% (inactive).
The value for `COc1cc(Br)c(C(=O)c2nccc3cc(OC)c(OC)cc23)cc1OC` was 9.5% (inactive); that for `Nc1nc(-c2ccccn2)nc(N)c1Cc1ccc(Cl)cc1Cl` was 22.1% (inactive); that for `CCOc1ccc(NC(=S)Nc2ccc3nsnc3c2)cc1` was 9.35% (inactive).
In the case of `O=C(NC1(O)C(=O)c2ccccc2C1=O)c1ccc(C(F)(F)F)cc1` it was 39.2% (inactive); in that of `CC(C)(CS(=O)(=O)[O-])NC(=O)CC[N+](C)(C)CCO`, 3.71% (inactive).
As for `COc1ccc(Cl)cc1C(=O)Nc1cccc(-c2ccc3nncn3n2)c1`, the inhibition was 61.7% (inactive).
Consider `O=c1[nH]c(Nc2ccccc2)cc2ccccc12`, for which the inhibition was 19% (inactive).
